Reference: PMC5717651, “Biotransformation of labdane and halimane diterpenoids by two filamentous fungi strains” (Royal Society Open Science, 2017)
Where two headings read alike, the source gives them in different places.

How the values were obtained:
[1] = target: T1, human recombinant acetylcholinesterase (Hr-AChE) (Homo sapiens, UniProt P22303); experiment: biochemical; conditions: for inhibitory activity on Hr-AChE (in words): authors' verbal rating; for inhibition at 100 µM: pH 8, at 100 µM compound, 70 µM acetylcholine, ammonium acetate 15.0 mM, pH 8.0, n = 3, read-out: % inhibition ± s.e.m. ICER-AChEhr
T1 construct: purchased Sigma-Aldrich C1682
T1 sequence (P22303 32-614): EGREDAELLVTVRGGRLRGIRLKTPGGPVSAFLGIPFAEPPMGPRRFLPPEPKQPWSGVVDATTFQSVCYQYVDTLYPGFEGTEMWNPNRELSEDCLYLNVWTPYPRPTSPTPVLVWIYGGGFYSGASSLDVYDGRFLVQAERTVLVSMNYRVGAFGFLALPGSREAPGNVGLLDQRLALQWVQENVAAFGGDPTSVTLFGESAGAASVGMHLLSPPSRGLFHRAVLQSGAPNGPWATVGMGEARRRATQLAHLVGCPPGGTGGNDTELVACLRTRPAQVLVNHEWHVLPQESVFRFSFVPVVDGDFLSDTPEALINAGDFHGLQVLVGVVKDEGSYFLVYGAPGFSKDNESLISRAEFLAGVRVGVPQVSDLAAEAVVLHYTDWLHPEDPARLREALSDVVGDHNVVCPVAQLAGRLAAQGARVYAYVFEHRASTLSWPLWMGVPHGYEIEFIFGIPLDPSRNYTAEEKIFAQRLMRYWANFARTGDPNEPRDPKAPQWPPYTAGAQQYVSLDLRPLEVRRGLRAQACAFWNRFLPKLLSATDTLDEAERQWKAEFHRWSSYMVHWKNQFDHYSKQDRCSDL
Description: (§1) Hr-AChE-ICER and Hu-BChE-ICER were prepared by covalent enzyme immobilization onto fused silica capillary tubing (30 cm × 0.375 mm × 100 µm I.D.) according to a previously described procedure. Resulting ICERs were connected to an on-flow LC-IT-MS/MS system (EMU FAPESP—Proc. PROEM 2014/50299-5) as biochromatography columns.
(§2) LC system (Shimadzu, Kyoto, Japan) consisted of two Nexera LC-20ADXR pumps, an SIL 20A auto sampler, with a 50 µl loop, a DGU-20A5 degasser and a CBM-20 interface. LC equipment was connected to an AmaZon Speed Ion Trap Mass Spectrometer equipped with an ESI source, operating in positive ion mode. Data were acquired using software Data Analysis 4.1 (Bruker Daltonics). LC analyses were performed at 25°C. Enzymatic reactions were monitored by direct quantification of choline (Ch, [M + H]^+ m/z 104), the hydrolysis product of ACh.
(§3) Samples were solubilized in methanol to provide a stock solution of 1.00 mM for each compound. Assay samples (100 µl) were prepared using 10 µl of stock solution (100 µM final concentration), 20 µl of acetylcholine solution (70 µM final concentration) and 70 µl of ammonium acetate solution (15.0 mM, pH 8.0). Solutions were prepared in duplicate and 20 µl aliquots were used for injection. Negative (absence of ACh) and positive (presence of ACh and absence of ligand) controls were analysed between each AChEI sample.

[2] = target: T2, human serum butyrylcholinesterase (Hu-BChE) (Homo sapiens, UniProt P06276); experiment: On-flow Hu-BChE-ICER-IT-MS/MS screening assay (hydrolysis of acetylcholine, choline quantified); assay type: biochemical; conditions: for inhibitory activity on Hu-BChE (in words): authors' verbal rating
T2 construct: purchased Sigma-Aldrich B4186; host or cells: human serum
T2 sequence (P06276 29-602): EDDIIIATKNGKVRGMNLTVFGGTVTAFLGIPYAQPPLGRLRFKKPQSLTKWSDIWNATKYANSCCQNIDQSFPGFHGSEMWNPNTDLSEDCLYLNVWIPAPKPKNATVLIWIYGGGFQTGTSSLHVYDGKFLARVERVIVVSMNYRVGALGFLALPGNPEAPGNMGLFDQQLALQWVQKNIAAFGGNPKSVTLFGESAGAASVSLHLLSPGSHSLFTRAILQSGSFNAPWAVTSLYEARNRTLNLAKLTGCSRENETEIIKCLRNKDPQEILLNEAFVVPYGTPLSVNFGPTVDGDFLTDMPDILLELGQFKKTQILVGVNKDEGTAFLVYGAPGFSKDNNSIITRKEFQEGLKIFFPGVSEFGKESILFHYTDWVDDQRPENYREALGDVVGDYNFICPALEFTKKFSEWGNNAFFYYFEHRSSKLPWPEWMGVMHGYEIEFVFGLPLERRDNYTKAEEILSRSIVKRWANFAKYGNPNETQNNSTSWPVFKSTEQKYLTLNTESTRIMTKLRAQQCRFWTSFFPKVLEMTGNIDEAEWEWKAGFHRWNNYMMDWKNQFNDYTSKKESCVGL
Description: as §1, §2, §3

[3] = at 100 µM compound, 70 µM acetylcholine, ammonium acetate 15.0 mM, pH 8.0, n = 3, read-out: % inhibition ± s.e.m. ICER-BChEhu
[4] = immobilized Hr-AChE capillary reactor (ICER), read-out: IC50 AChEhr

C/C(=C\C(=O)O)CC[C@@H]1[C@@]2(C)CCCC(C)(C)[C@@H]2CC[C@@]1(C)O [Compound 2, (+)-(5S, 8R, 9R, 10S)-Lab-13-en-8α-ol-15-oic acid]
IC50 [1]: > 100 µM | inhibitory activity on Hr-AChE (in words) [1]: weak inhibitory activity | inhibition at 100 µM [1]: 26.5 ± 3.1% | inhibition at 100 µM [2, 3]: 13.3 ± 0.39% | inhibitory activity on Hu-BChE (in words) [2]: weak inhibitory activity

C/C(=C\C(=O)O)CC[C@H]1[C@](C)(O)[C@H](O)C[C@H]2C(C)(C)CCC[C@@]21C (relative stereo) [Compound 7, (-)-(5S*, 7R*, 8R*, 9R*, 10S*)-Lab-13-en-7α,8α-diol-15-oic acid]
IC50 [1, 4]: > 100 µM | inhibition at 100 µM [1]: 4.71 ± 0.11% | inhibition at 100 µM [2, 3]: 20.1 ± 1.73%

C/C(=C\C(=O)O)CC[C@]1(C)C2=CCC[C@@](C)(C=O)[C@H]2CC[C@H]1C [Compound 6, (+)-(4R, 5S, 8R, 9S)-18-Formyl-ent-halima-1(10),13-(E)-dien-15-oic acid]
IC50 [1, 4]: > 100 µM | inhibition at 100 µM [1]: 3.23 ± 1.7% | inhibition at 100 µM [2, 3]: 25.07 ± 0.14%

C/C(=C\C(=O)O)CC[C@@H]1[C@@]2(C)CC[C@H](O)C(C)(C)[C@@H]2CC[C@@]1(C)O (relative stereo) [Compound 8, (+)-(3S*, 5S*, 8R*, 9R*, 10S*)-Lab-13-en-3β,8α-diol-15-oic acid]
inhibitory activity on Hr-AChE (in words) [1]: weakly active | IC50 [1, 4]: 95.7 ± 1.7 µM | inhibition at 100 µM [1]: ~50% | inhibition at 100 µM [2, 3]: 13.3 ± 2.62%

COc1ccc2c3c1O[C@H]1C[C@@H](O)C=C[C@@]31CCN(C)C2 [Gal, Galanthamine, reference compound]
inhibition at 100 µM ([2]; pH 8, read-out: % inhibition ± s.e.m. ICER-BChEhu): 75.8 ± 1.74%

C/C(=C\C(=O)O)CC[C@]1(C)C2=CCC[C@@](C)(CO)[C@H]2CC[C@H]1C [Compound 1, (+)-(4R, 5S, 8R, 9S)-18-Hydroxy-ent-halima-1(10),13-(E)-dien-15-oic acid]
inhibitory activity on Hr-AChE (in words) [1]: weak inhibitory activity | IC50 [1, 4]: > 100 µM | inhibition at 100 µM [1]: 24.96 ± 0.04% | inhibition at 100 µM [2, 3]: 36.09 ± 0.28% | inhibitory activity on Hu-BChE (in words) [2]: weak inhibitory activity

C/C(=C\C(=O)O)CC[C@]1(C)C2=CC(=O)C[C@@](C)(CO)[C@H]2CC[C@H]1C [Compound 3, (+)-(4R, 5S, 8R, 9S)-2-Oxo-18-hydroxy-ent-halima-1(10),13-(E)-dien-15-oic acid]
IC50 [1, 4]: > 100 µM | inhibition at 100 µM [1]: 30.13 ± 0.3% | inhibition at 100 µM [2, 3]: 14.5 ± 2.47%

C/C(=C\C(=O)O)CC[C@]1(C)C2=CCC[C@@](C)(C(=O)O)[C@H]2CC[C@H]1C [Compound 5, (+)-(4R, 5S, 8R, 9S)-18-Carboxy-ent-halima-1(10),13-(E)-dien-15-oic acid]
inhibitory activity on Hr-AChE (in words) [1]: inactive | IC50 [1, 4]: > 100 µM | inhibition at 100 µM [1]: ~50% | inhibition at 100 µM [2, 3]: 8.17 ± 1.32%

C/C(=C\C(=O)O)CC[C@]1(C)C2=CCCC(CO)(CO)[C@H]2CC[C@H]1C [Compound 4, (+)-(5S, 8R, 9S)-18,19-Dihydroxy-ent-halima-1(10),13-(E)-dien-15-oic acid]
IC50 [1, 4]: > 100 µM | inhibition at 100 µM [1]: 39.4 ± 3.86% | inhibition at 100 µM [2, 3]: 14.5 ± 2.42%
